Experimental data reported in ChEMBL document CHEMBL5247643, “Discovery and Characterization of BAY-805, a Potent and Selective Inhibitor of Ubiquitin-Specific Protease USP21” (J Med Chem, 2023).
Active and inactive are the calls of the source. The calls are words filed in the database; no cut-off is given here.

Columns and labels:
U2OS = experiment: Antiproliferative activity against human U2OS cells assessed as reduction in cell viability up to 30 uM incubated for 72 hrs by CellTiter-Glo luminescent assay; type: functional, cell-based
[1] = biological target: T1, Ubiquitin carboxyl-terminal hydrolase 4 (Homo sapiens) (UniProt Q13107); experiment: Inhibition of human USP4 using ubiquitin rhodamine 110 as substrate at 10 to 50 uM by fluorometric assay; conditions: dose 10-50 µM
T1 sequence (whole entry): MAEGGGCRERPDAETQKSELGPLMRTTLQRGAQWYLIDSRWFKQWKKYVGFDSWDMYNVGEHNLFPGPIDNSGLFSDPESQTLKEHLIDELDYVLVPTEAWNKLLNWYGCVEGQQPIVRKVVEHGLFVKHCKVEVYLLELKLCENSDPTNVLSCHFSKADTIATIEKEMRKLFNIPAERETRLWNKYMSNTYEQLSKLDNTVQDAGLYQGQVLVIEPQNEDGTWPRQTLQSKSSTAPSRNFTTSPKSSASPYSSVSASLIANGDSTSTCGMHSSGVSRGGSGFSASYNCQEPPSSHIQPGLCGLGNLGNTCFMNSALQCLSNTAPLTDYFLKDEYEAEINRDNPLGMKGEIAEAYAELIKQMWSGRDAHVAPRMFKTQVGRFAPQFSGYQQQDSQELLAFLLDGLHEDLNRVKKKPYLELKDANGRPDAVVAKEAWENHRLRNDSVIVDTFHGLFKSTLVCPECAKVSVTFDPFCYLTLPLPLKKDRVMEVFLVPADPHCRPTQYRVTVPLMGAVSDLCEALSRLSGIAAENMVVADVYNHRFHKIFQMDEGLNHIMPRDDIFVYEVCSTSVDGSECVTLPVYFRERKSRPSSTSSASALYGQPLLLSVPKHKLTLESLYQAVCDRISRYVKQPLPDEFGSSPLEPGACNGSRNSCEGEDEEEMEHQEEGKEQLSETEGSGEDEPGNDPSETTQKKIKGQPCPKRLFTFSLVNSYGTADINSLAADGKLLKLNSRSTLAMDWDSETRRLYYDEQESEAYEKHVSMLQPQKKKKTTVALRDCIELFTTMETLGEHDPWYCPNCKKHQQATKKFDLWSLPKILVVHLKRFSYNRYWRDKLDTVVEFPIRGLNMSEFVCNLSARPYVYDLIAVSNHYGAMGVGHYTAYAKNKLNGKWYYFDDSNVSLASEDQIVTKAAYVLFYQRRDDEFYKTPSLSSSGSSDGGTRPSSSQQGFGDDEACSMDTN

[2] = biological target: T2, Ubiquitin carboxyl-terminal hydrolase 30 (Homo sapiens) (UniProt Q70CQ3); experiment: Inhibition of human USP30 using ubiquitin rhodamine 110 as substrate at 10 to 50 uM by fluorometric assay; conditions: dose 10-50 µM
T2 sequence (whole entry): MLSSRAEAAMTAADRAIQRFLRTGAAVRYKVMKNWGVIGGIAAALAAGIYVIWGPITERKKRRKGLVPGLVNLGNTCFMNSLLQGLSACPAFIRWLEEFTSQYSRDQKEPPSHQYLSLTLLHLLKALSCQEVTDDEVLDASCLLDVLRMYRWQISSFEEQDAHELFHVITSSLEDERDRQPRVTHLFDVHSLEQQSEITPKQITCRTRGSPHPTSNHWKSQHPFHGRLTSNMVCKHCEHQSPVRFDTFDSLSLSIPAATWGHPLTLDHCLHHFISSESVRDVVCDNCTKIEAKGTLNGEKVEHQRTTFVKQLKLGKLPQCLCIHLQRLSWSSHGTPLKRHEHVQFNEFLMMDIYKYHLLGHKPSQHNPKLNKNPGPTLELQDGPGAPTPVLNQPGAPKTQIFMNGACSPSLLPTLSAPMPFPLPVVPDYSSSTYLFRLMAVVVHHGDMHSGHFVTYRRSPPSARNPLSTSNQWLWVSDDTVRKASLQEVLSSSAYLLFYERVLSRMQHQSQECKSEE

[3] = biological target: T3, Ubiquitin carboxyl-terminal hydrolase 21 (Homo sapiens) (UniProt Q9UK80); experiment: Inhibition of human USP21 (209 to 563 residues) expressed in Escherichia coli BL21 (DE3) using ubiquitin rhodamine 110 as substrate assessed as remaining enzyme activity at 10 to 50 uM by fluorometric assay; conditions: dose 10-50 µM
T3 sequence (whole entry): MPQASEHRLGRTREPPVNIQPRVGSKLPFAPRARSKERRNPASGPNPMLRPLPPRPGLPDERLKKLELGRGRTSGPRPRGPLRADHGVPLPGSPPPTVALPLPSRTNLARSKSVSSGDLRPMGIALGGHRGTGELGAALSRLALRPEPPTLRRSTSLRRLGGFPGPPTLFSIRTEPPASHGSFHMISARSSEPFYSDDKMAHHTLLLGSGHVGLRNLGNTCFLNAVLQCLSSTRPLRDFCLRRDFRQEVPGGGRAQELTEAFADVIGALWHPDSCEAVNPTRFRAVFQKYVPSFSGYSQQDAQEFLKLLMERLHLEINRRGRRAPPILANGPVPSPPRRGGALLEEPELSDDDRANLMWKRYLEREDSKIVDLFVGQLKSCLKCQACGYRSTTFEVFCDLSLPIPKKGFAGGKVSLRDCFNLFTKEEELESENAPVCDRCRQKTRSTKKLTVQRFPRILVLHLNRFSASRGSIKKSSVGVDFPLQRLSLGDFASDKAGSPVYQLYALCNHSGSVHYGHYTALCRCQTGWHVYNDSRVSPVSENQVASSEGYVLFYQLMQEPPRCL

[4] = biological target: T1, Ubiquitin carboxyl-terminal hydrolase 4 (Homo sapiens); experiment: Inhibition of human USP4 (1 to 932 residues) expressed in Sf9 cells using ubiquitin rhodamine 110 as substrate assessed as remaining enzyme activity at 10 to 50 uM by fluorometric assay; conditions: dose 10-50 µM
[5] = biological target: T4, Ubiquitin carboxyl-terminal hydrolase 22 (Homo sapiens) (UniProt Q9UPT9); experiment: Inhibition of human USP22 (1 to 525 residues) expressed in Sf9 cells using ubiquitin rhodamine 110 as substrate assessed as remaining enzyme activity at 10 to 50 uM by fluorometric assay; conditions: dose 10-50 µM
T4 sequence (whole entry): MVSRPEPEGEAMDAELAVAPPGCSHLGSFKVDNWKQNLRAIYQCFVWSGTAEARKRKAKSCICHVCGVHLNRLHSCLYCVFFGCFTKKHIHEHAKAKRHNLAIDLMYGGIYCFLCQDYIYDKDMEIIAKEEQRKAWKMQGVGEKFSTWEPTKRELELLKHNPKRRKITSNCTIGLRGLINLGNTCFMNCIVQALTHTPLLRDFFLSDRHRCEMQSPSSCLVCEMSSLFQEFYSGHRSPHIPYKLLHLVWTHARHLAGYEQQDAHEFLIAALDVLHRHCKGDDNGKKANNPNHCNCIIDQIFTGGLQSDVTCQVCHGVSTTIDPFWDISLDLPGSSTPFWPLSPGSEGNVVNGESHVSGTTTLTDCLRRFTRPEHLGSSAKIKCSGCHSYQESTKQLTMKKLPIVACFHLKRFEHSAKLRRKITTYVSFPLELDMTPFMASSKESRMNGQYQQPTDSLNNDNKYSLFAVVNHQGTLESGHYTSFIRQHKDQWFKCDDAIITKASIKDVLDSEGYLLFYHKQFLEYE

inhibition [1]	inhibition [2]	Activity [3]	Activity [4]	Activity [5]	Structure (SMILES)	Activity (U2OS)
inactive	inactive				CC(C)C[C@H](NC(=O)C1(C(F)(F)F)CCCCC1)C(=O)Nc1nnc(Cc2ccc(C#N)cc2)s1	inactive
		< 50%	< 50%	< 50%	CC(NC(=O)C1CCCC1)C(=O)Nc1nnc(Cc2ccc([N+](=O)[O-])cc2)s1 (racemic)	
